Among the data in article PMC7468467, “Characterization of a Novel Chromosomal Class C β-Lactamase, YOC-1, and Comparative Genomics Analysis of a Multidrug Resistance Plasmid in Yokenella regensburgei W13” (Frontiers in Microbiology, 2020) are IC50 values, retold here.

The IC50 is the midpoint of a concentration-inhibition curve. High values mean a need for much substance, low ones inhibition by little substance.

SMILES strings stand for the structures.

The target in the test is T1, YOC-1 (Yokenella regensburgei, UniProt A0AB38FXT7).
T1 construct: gene C7387_3136; signal peptide (residues 1-22) removed; pCold I in E. coli BL21, N-terminal His tag removed by enterokinase
T1 sequence (A0AB38FXT7 entry or part of it): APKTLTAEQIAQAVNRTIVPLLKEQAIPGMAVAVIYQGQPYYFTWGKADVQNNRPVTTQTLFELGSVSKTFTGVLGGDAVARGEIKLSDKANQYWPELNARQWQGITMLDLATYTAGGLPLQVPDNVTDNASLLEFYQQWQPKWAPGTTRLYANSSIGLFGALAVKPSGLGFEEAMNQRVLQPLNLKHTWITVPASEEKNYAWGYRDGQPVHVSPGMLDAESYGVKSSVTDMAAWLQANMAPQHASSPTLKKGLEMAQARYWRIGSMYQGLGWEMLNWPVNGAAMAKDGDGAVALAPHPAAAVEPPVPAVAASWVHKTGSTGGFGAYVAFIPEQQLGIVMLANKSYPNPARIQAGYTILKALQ
As to the kind of experiment: nitrocefin hydrolysis inhibition, spectrophotometric. The test is classed as biochemical. To be noted: 100 μM nitrocefin; 5 min preincubation; 37°C.
Consider `O=C(O)[C@H]1/C(=C/CO)O[C@@H]2CC(=O)N21` [clavulanic acid], for which inhibition was half-maximal at 57.33 ± 0.03 µM (IC50). `Nc1nc2c(ncn2[C@@H]2O[C@H](COP(=O)(O)O)[C@@H](O)[C@H]2O)c(=O)[nH]1` [GMP] came in with an IC50 of 81.73 ± 0.02 µM. Turning to `NC(=O)[C@@H]1CC[C@@H]2CN1C(=O)N2OS(=O)(=O)O` [avibactam], the IC50 was 0.00117 ± 0.0002 µM.
